Laboratory results: patent publication US9920010B2, “CXCR7 receptor modulators” (IDORSIA PHARMACEUTICALS LTD, priority 2013, dated 2018)

What follows are compounds tested against T1, CXCR7 (Homo sapiens, UniProt P25106) (assay: PathHunter CHO-K1 CXCR7 b-arrestin recruitment assay (CXCR7 agonistic activity)). Conditions: PathHunter CHO-K1 CXCR7 b-arrestin cell line.
T1 construct: host or cells: CHO-K1 (PathHunter CHO-K1 CXCR7 b-arrestin cell line, stably transfected)
Format: cell-based
Method in brief: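 Stable CHO-K1 line with C-terminally ProLink-tagged CXCR7 and β-arrestin 2–EA fusion; β-arrestin recruitment restores β-gal activity, read by chemiluminescence after 1 h RT detection. Cells seeded 24 h, starved in OPTIMEM 3–4 h, exposed to compounds 90 min at 37 °C in HBSS/HEPES/BSA. Geometric-mean EC50 from repeated measurements.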

T1 sequence (P25106 whole entry): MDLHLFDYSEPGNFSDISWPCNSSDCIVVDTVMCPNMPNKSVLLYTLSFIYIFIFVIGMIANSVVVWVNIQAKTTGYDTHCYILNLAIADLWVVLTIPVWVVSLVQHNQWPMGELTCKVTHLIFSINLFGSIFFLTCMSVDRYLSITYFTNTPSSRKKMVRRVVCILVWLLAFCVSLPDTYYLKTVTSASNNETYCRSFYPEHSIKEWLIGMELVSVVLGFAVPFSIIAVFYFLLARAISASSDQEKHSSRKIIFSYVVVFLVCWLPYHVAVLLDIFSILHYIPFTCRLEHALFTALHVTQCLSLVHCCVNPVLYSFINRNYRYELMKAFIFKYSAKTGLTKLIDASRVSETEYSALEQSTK
T1 sequence (P32121 whole entry partner): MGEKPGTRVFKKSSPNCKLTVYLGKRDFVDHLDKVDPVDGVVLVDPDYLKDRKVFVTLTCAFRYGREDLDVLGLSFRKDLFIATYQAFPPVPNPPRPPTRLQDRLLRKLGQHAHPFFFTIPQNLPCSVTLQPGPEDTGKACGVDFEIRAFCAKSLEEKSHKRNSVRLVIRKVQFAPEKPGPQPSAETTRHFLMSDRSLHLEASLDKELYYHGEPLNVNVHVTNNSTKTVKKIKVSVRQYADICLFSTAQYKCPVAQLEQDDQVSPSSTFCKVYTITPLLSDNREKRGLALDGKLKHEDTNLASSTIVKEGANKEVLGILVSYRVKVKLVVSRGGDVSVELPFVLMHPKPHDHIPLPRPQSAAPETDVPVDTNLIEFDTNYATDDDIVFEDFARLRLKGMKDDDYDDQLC

`CN(C)CCN(Cc1ccccc1C(F)(F)F)C(=O)CNc1cccc2c1CN(CC(C)(C)C)CC2` [compound 563, N-(2-Dimethylamino-ethyl)-2-[2-(2,2-dimethyl-propyl)-1,2,3,4-tetrahydro-isoquinolin-8-ylamino]-N-(2-trifluoromethyl-benzyl)-acetamide] and `C#CCN1CCc2c(cccc2NCC(=O)N(CCN(C)C)Cc2ccccc2C(F)(F)F)C1` [Example 308, N-(2-Dimethylamino-ethyl)-2-(2-prop-2-ynyl-1,2,3,4-tetrahydro-isoquinolin-5-ylamino)-N-(2-trifluoromethyl-benzyl)-acetamide] are within 1.5-fold of each other in EC50: 0.026 µM for the first, 0.028 µM for the second.

First: CCN1CCc2cccc(NCC(=O)N(Cc3ccccc3)C3CCNCC3)c2C1 [compound 377]
Second: CCN1CCc2cccc(NCC(=O)N(Cc3ccccc3)C3CCN(C)C3)c2C1 (racemic) [compound 512]
The EC50 of the first is 4.9-fold higher: 0.276 µM for the first, 0.056 µM for the second.

Going from `CNCCN(Cc1ncccc1C(F)(F)F)C(=O)CNc1cccc2c1CCN(C(=O)C1CCOC1)C2` (racemic) [compound 417] to `CNCCN(Cc1ccccc1C(F)(F)F)C(=O)CNc1cccc2c1CCN(C(=O)NC1CCCCC1)C2` [compound 407], the EC50 rises from 0.015 µM to 0.326 µM (22-fold). The first is the more potent here.

Going from `CS(=O)(=O)NCCN(Cc1ccccc1C(F)(F)F)C(=O)CNc1cccc2c1CCN(CC1CC1)C2` [Example 230, 2-(2-Cyclopropylmethyl-1,2,3,4-tetrahydro-isoquinolin-5-ylamino)-N-(2-methanesulfonylamino-ethyl)-N-(2-trifluoromethyl-benzyl)-acetamide] to `NCCN(Cc1ccccc1C(F)(F)F)C(=O)CNc1cccc2c1CCN(CC1CC1)C2` [compound 442, N-(2-Amino-ethyl)-2-(2-cyclopropylmethyl-1,2,3,4-tetrahydro-isoquinolin-5-ylamino)-N-(2-trifluoromethyl-benzyl)-acetamide], the EC50 falls from 0.081 µM to 0.01 µM (8.1-fold).

Compared with `CCCCNC(=O)N1CCc2c(cccc2NCC(=O)N(CCNC)Cc2ccccc2C(F)(F)F)C1` [compound 405], `CNCCN(Cc1ccccc1C(F)(F)F)C(=O)CNc1cccc2c1CN(CC1CC1)CC2` [compound 384, 2-(2-Cyclopropylmethyl-1,2,3,4-tetrahydro-isoquinolin-8-ylamino)-N-(2-methylamino-ethyl)-N-(2-trifluoromethyl-benzyl)-acetamide] is 64-fold lower in EC50: 0.257 µM for the first, 0.004 µM for the second.

First: CN(C)CCN(Cc1ccccc1)C(=O)CNc1cccc2c1CCN(CC(C)(C)C)C2 [compound 116]
Second: CN(C)CCN(Cc1ccccc1)C(=O)CNc1cccc2c1CN(Cc1ccccc1)CC2 [compound 193, N-Benzyl-2-(2-benzyl-1,2,3,4-tetrahydro-isoquinolin-8-ylamino)-N-(2-dimethylamino-ethyl)-acetamide]
The EC50 of the first is 2-fold higher: 0.096 µM for the first, 0.048 µM for the second. The second is the more potent here.

`CN(C)CCN(Cc1ccccc1)C(=O)CNc1cccc2c1CCN(C(=O)CC1CCCCC1)C2` [compound 129] and `CCOC(=O)CN(Cc1ccccc1)C(=O)CNc1cccc2c1CCN(CC1CC1)C2` [Example 71, {Benzyl-[2-(2-cyclopropylmethyl-1,2,3,4-tetrahydro-isoquinolin-5-ylamino)-acetyl]-amino}-acetic acid ethyl ester] are within 1.5-fold of each other in EC50: 0.449 µM for the first, 0.326 µM for the second.

Compared with `Cc1cccnc1CN(CCC(C)(C)C)C(=O)CNc1cccc2c1CCN(CC1CC1)C2` [Example 276, 2-(2-Cyclopropylmethyl-1,2,3,4-tetrahydro-isoquinolin-5-ylamino)-N-(3,3-dimethyl-butyl)-N-(3-methyl-pyridin-2-ylmethyl)-acetamide], `CN(C)CCN(Cc1ccccc1C(F)(F)F)C(=O)CNc1cccc2c1CCN(C1CCC1)C2` [Example 352, 2-(2-Cyclobutyl-1,2,3,4-tetrahydro-isoquinolin-5-ylamino)-N-(2-dimethylamino-ethyl)-N-(2-trifluoromethyl-benzyl)-acetamide] is 4.2-fold lower in EC50: 0.017 µM for the first, 0.004 µM for the second.

`CN(C)CCN(Cc1ccccc1)C(=O)/C=C/c1cccc2c1CCN(C)C2` [compound 142, (E)-N-Benzyl-N-(2-dimethylamino-ethyl)-3-(2-methyl-1,2,3,4-tetrahydro-isoquinolin-5-yl)-acrylamide] gave an EC50 of 0.023 µM.
